For this test, the target named is T1, aldosterone synthase (CYP11B2) (Homo sapiens, UniProt P19099).
T1 sequence (P19099 25-503): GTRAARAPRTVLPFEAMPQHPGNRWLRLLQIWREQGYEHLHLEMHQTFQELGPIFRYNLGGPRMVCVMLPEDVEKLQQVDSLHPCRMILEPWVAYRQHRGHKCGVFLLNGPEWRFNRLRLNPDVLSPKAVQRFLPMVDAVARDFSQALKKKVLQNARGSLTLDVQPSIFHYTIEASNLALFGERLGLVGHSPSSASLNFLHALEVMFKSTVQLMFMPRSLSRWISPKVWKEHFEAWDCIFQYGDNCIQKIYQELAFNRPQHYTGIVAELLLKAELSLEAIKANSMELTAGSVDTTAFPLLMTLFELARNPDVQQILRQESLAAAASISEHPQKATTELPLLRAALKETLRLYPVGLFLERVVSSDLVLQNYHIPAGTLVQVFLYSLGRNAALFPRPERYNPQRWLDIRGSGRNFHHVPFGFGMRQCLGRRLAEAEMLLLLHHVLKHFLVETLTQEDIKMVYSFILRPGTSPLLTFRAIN
Put plainly: aldosterone production by cells expressing the recombinant enzyme. It is filed as cell-based.

As for `CCC(=O)N[C@@H]1CCCc2c(-c3ccc4c(c3)CCC(=O)N4C)cncc21` [RO6836191], the Ki worked out at 13 nM.

The values are drawn from publication PMC5142369 (Hypertension (Dallas, Tex. : 1979), 2016).
